Data taken from patent US20040132795A1, “Methods to screen and treat individuals with glaucoma or the propensity to develop glaucoma” (priority 2001, published 2004).

Assays:
Format in all cases: in vivo, human
[1] = Treatment with diclofenac in glaucomic patients having the TIGRmt-11 mutation, mean diurnal IOP; details: 0.1% diclofenac
Text: The same procedures described in Example II were followed with respect to administering Diclofenac to glaucomic patients having the […]-11 mutation.

[2] = Treatment with diclofenac in glaucomic patients possessing both the mt-1 and mt-11 mutations, mean diurnal IOP; details: 0.1% diclofenac
[3] = Treatment with diclofenac for 6 months in the presence of the TIGR mt-1 mutation, mean diurnal IOP
Text: After treatment for 6 months with varying amounts of diclofenac in the presence of the mt-1 mutation, the following results are observed: […]

[4] = 0.03% diclofenac, mt-1 mutation present
[5] = 0.06% diclofenac, mt-1 mutation present
[6] = 0.1% diclofenac, mt-1 mutation present

For O=C(O)Cc1ccccc1Nc1c(Cl)cccc1Cl [Diclofenac], the “Mean Change in Diurnal IOP at 6 Months” value ([1]; mt-11 mutation absent) was −1.3 mm Hg, the “Mean Change in Diurnal IOP at 6 Months” value ([1]; mt-11 mutation present) was −2.0 mm Hg and the “Mean Change in Diurnal IOP at 6 Months” value ([2]; mt-1 and mt-11 mutations absent) was −0.6 mm Hg. For the same compound, the “Mean Change in Diurnal IOP at 6 Months” value ([2]; mt-1 and mt-11 mutations present) was −2.9 mm Hg, the “Percentage of Patients Exhibiting a Decrease in Diurnal IOP >= 2 mm Hg After 6 Months of Treatment” value [3, 4] was 36% and the “Percentage of subjects exhibiting a Mean Diurnel IOP < 22 mm Hg After 6 Months of Treatment” value [3, 4] was 55%. The “Percentage of Patients Exhibiting a Decrease in Diurnal IOP >= 2 mm Hg After 6 Months of Treatment” value [3, 5] was 40%, the “Percentage of subjects exhibiting a Mean Diurnel IOP < 22 mm Hg After 6 Months of Treatment” value [3, 5] was 60% and the “Mean Change in Diurnal IOP at 6 Months” value ([3]; 0.1% diclofenac, mt-1 mutation absent) was −1.5 mm Hg. The “Mean Change in Diurnal IOP at 6 Months” value [3, 6] was −2.1 mm Hg, the “Percentage of Patients Exhibiting a Decrease in Diurnal IOP >= 2 mm Hg After 6 Months of Treatment” value [3, 6] was 64% and the “Percentage of subjects exhibiting a Mean Diurnel IOP < 22 mm Hg After 6 Months of Treatment” value [3, 6] was 64%.
